Measured values taken from patent US20130236568A1, “PHOSPHAPLATINS HAVING ANTI-ANGIOGENIC, ANTI-METASTATIC, AND PRO-APOPTOTIC PROPERTIES AND USES THEREOF” (Ohio University, priority 2011, published 2013).

Legend:
Assay type in all cases: cell-based, human
caspase-9 = experiment: Quantitative real-time PCR, caspase-9 expression in HUVEC; conditions: HUVEC treated with pyrodach-4
Method: (§1) Evaluations of selected gene expressions in Human Umbilical Vein Endothelial Cells (HUVEC) and Human Ovarian Cancer Cells by quantitative reverse transcriptase polymerase chain reaction (PCR)
(§2) Quantitative real-time PCR experiments were performed to estimate the expression of a selection of targeted genes. HUVEC cells (Lonza Walkersville, Frederick, Md.) were cultured on 0.1% gelatin-coated petri dishes by following standard protocols recommended by the vendor in a humidified incubator by maintaining 5% CO2 at 37° C. […]
(§3) Both treated and untreated cancer cells were maintained in RPMI 1640 medium with 10% fetal bovine serum, 2 μmol L-glutamine, 100 units/mL penicillin-streptomycin and 0.25 units/mL insulin solution, at 37° C. with 5% CO2. […] The quantity and purity of RNA were determined by UV spectroscopy (NanoDrop 2000 Thermo Scientific, Wilmington, Del.). A minimum absorbance ratio index (ratio of the absorbance measured at 260 nm over that at 280 nm) of 1.9 was used as an acceptable purity. […] The target gene was labeled with a blue dye (FAM, absorbance: 494 nm, emission: 518 nm) while the reference gene was tagged with a green dye (VIC, absorbance: 538 nm, emission: 554 nm). […]
(§4) The threshold cycle number (Ct), the point at which the fluorescence of the qPCR reaction just exceeds the threshold fluorescence of the detection system, was determined. […]

VEGFR2 gene = experiment: Quantitative real-time PCR, VEGFR2 gene expression in HUVEC cells
Method: as §1, §2, §3, §4

A2780 cells = experiment: Cell death detection assay with ELISA, A2780 cells; conditions: 24 hr
Method: In these experiments, ovarian cancer cells were treated with pyrodach-4 in the presence and absence of inhibitors PFT-α (an inhibitor p53) and LY29400 (an inhibitor of PI3K).
Cells were treated with compounds for 24 hr. The different treatment groups from left to right are: control, 7 μM cisplatin, Con+PFT-α, 180 μM D4, 180 μM D4+PFT-α, 180 μM D4+LY294002. Statistical analysis was conducted using the Tukey test. N=3 and P<0.05. In the figure, “*” indicates values significant from untreated control.
A2780 and A2780/C30 cells were grown in monolayers, trypsinized and suspended in supplemented RPMI 1640 media as described in Example 5. All the treatments on the Fc/A2780 and Fc/A2780/C30 cell samples were carried out in triplicate. The ELISA was performed according to the manufacturer's instructions. Briefly, 50,000 cells were plated for each treatment and the cells were allowed to adhere for 4-6 hours. Cells were then either incubated with media alone (untreated sample) or with pyrodach-4 or cisplatin in the concentrations indicated above. […] The absorbances were measured at 405 and 490 nm for each treatment type using SPECTRA Max M2 multichannel fluorescence plate reader (Molecular Devices, Sunnyvale, Calif.). The absorbances of the treated samples were normalized to the substrate solution. […]

p53 = experiment: Expression of key genes with and without p53 inhibitor (Table 3): p53; conditions: positive = manifold increase, negative = decrease vs untreated cells
Method: (§5) Quantitative real-time PCR experiments were performed to estimate the expression of a selection of targeted genes. HUVEC cells (Lonza Walkersville, Frederick, Md.) were cultured on 0.1% gelatin-coated petri dishes by following standard protocols recommended by the vendor in a humidified incubator by maintaining 5% CO2 at 37° C. Human epithelial ovarian cancer cells (A2780) and cisplatin-resistant cells (A2780/C30) were cultured in RPMI 1640 with or without cisplatin (7 μM) and pyrodach-4 (180 μM) for 0, 3, 12 and 24 hours. […] HUVECs were treated with or without cisplatin (7 μM) or pyrodach-4 (90 or 180 μM) for various durations ranging from 1 hr. to 6 hrs.
as §3, with “CO2. RNA was isolated from both the treated and untreated cells.” for “CO2.”

Bcl-2 = experiment: Expression of key genes with and without p53 inhibitor (Table 3): Bcl-2; conditions: positive = manifold increase, negative = decrease vs untreated cells
Method: as §5
as §3, with “CO2. RNA was isolated from both the treated and untreated cells.” for “CO2.”

Fas = experiment: Quantitative real-time PCR, Fas expression in HUVEC; conditions: HUVEC treated with pyrodach-4
Method: as §1, §2, §3, §4

FasL = experiment: Expression of key genes with and without p53 inhibitor (Table 3): FasL; conditions: positive = manifold increase, negative = decrease vs untreated cells
Method: as §5
as §3, with “CO2. RNA was isolated from both the treated and untreated cells.” for “CO2.”

Caspase 3 = experiment: Expression of key genes with and without p53 inhibitor (Table 3): Caspase 3; conditions: positive = manifold increase, negative = decrease vs untreated cells
Method: as §5
as §3, with “CO2. RNA was isolated from both the treated and untreated cells.” for “CO2.”

Substance: trans-(±)-1,2-cyclohexanediamine-trans-dihydroxo(pyrophosphato) platinum(IV) [Pyrodach-4]
- Over-expression of caspase-9 (caspase-9): 2-3 fold
- Suppression of VEGFR-2 expression (VEGFR2 gene): ≤ 50%
- Normalized expression of VEGFR2 gene (VEGFR2 gene; positive = manifold increase, negative = relative decrease vs untreated cells, pyrodach-4 90 or 180 μM, 1 to 6 hrs): −2.0
- Overall apoptotic cell death in the presence of inhibitors, compared to cisplatin (A2780 cells; 180 μM D4 with PFT-α 15 μM or LY294002 30 μM vs 7 μM cisplatin): remained extremely high compared to cisplatin
- Effect of p53 and PI3K inhibitors on apoptotic cell death (ELISA absorbance) (A2780 cells; 180 μM D4 with PFT-α 15 μM or LY294002 30 μM): some reduction in cell death
- Expression of p53 (p53; Pyrodach-4 + PFT-α): 2.1
- Expression of p53 (p53; Pyrodach-4 treatment only): 1.8
- Expression of Bcl-2 (Bcl-2; Pyrodach-4 + PFT-α): −2.0
- Expression of Bcl-2 (Bcl-2; Pyrodach-4 treatment only): 1.0
- Over-expression of Fas (Fas): 2-5 fold
- Expression of FasL (FasL; Pyrodach-4 + PFT-α): undetectable
- Expression of FasL (FasL; Pyrodach-4 treatment only): 4.6
- Expression of Caspase 3 (Caspase 3; Pyrodach-4 + PFT-α): −1.2
- Expression of Caspase 3 (Caspase 3; Pyrodach-4 treatment only): 2.6
